Assays:
[1] = target: purified Human plasma Kallikrein (Homo sapiens (Human), UniProt P03952); test: Kallikrein Assay; assay type: biochemical; settings: purified Human plasma Kallikrein 0.5 nM; substrate Acetyl-K-P-R-AFC; 50 mM HEPES pH 7.4; Ki from IC50 by Cheng Prusoff
Method in brief: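 Purified human plasma kallikrein (0.5 nM) with fluorogenic Ac-K-P-R-AFC ([…]) in 50 mM HEPES pH 7.4, 150 mM NaCl, 5 mM CaCl2, 0.1% PEG 8000, at rt or 37 °C. Substrate hydrolysis rate read with and without inhibitor; IC50 from four-parameter logistic fit, converted to Ki by Cheng–Prusoff.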

[2] = target: purified human Factor XIa (Homo sapiens (Human), UniProt P03951); test: Factor XIa Assay; assay type: biochemical; settings: purified human Factor XIa 40 pM; substrate Z-Gly-Pro-Arg-AFC 100 μM; 50 mM HEPES pH 7.4; read-out: Human FXIa Ki
Method in brief: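 Purified human FXIa at 40 pM final with fluorogenic Z-Gly-Pro-Arg-AFC at 100 μM, in 50 mM HEPES pH 7.4, 150 mM NaCl, 5 mM CaCl2, 0.1% PEG 8000, at rt or 37° C. Initial velocities measured after enzyme–inhibitor equilibration; Ki derived from Vo/Vi versus [I] assuming competitive inhibition.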

purified human Factor XIa, sequence (P03951 388-625): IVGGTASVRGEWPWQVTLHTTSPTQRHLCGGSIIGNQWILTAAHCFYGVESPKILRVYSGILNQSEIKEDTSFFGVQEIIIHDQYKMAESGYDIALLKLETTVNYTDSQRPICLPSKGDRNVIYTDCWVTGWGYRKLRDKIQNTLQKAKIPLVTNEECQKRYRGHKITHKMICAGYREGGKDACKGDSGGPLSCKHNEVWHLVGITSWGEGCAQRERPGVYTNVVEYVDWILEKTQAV
purified human Factor XIa, sequence (P03951 19-387 partner): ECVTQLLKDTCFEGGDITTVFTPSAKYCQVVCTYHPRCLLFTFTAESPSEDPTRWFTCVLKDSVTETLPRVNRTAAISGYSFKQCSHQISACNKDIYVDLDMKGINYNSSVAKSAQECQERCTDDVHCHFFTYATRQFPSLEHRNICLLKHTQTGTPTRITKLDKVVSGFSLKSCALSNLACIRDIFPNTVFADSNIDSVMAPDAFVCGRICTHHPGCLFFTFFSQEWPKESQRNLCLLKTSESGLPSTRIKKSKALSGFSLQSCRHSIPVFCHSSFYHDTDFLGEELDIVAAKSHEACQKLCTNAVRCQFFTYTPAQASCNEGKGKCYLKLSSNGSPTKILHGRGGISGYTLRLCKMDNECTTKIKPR
purified Human plasma Kallikrein, sequence (P03952 391-638): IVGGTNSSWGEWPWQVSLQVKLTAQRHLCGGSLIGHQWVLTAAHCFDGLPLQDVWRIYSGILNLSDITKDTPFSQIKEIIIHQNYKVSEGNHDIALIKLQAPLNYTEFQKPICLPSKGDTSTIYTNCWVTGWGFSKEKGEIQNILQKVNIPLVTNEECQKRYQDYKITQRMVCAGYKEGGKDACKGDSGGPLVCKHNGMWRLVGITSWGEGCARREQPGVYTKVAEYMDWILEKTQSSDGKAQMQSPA
purified Human plasma Kallikrein, sequence (P03952 20-390 partner): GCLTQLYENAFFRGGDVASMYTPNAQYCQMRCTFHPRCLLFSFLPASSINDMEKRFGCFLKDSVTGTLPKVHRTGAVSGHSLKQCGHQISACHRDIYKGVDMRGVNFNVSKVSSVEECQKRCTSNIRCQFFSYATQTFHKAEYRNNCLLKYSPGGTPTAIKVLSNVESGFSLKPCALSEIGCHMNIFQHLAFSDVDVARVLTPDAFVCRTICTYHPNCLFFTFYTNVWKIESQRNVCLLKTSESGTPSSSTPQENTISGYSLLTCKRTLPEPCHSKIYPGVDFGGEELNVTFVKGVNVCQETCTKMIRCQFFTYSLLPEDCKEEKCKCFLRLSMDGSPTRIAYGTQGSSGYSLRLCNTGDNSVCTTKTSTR

Row | SMILES | Ki [1] | Ki [2]
1 | COC(=O)Nc1ccc2c(c1)NC(=O)CCCCC(c1ccc(-c3c(F)ccc(Cl)c3F)c[n+]1[O-])c1cccc-2c1 (single isomer, unassigned) [Example 13-a, 5-(3-Chloro-2,6-difluorophenyl)-2-(2^4-((methoxycarbonyl)amino)-4-oxo-3-aza-1(1,3),2(1,2)-dibenzenacyclononaphane-9-yl)pyridine 1-oxide] | 1550 pM | 360 pM
2 | COC(=O)Nc1ccc2c(c1)NC(=O)CCCC[C@H](c1ccc(-c3cc(Cl)ccc3OC(F)(F)F)c[n+]1[O-])c1cccc-2c1 (single isomer, unassigned) [Example 30] | 6770 pM | 380 pM
3 | COC(=O)Nc1ccc2c(c1)NC(=O)CCCC[C@H](c1ccc(-c3cc(Cl)ccc3C#N)c[n+]1[O-])c1cccc-2c1 (single isomer, unassigned) [Example 31] | 2680 pM | 800 pM
4 | COC(=O)Nc1ccc2c(c1)NC(=O)CCCC[C@H](c1ccc(-c3cc(Cl)ccc3C(F)(F)F)c[n+]1[O-])c1cccc-2c1 (single isomer, unassigned) [Example 32] | 2950 pM | 830 pM
5 | COC(=O)Nc1ccc2c(c1)NC(=O)CCCC[C@H](c1ccc(-c3cc(Cl)ccc3OC(F)F)c[n+]1[O-])c1cccc-2c1 (single isomer, unassigned) [Example 33] | 1670 pM | 280 pM
6 | COC(=O)Nc1ccc2c(c1)NC(=O)CCCCC(c1ccc(-c3cc(Cl)ccc3-n3cc(C(F)F)nn3)c[n+]1[O-])c1cccc-2c1 (single isomer, unassigned) [Example 36-a, 5-(5-chloro-2-(4-(difluoromethyl)-1H-1,2,3-triazol-1-yl)phenyl)-2-(2^4-((methoxycarbonyl)amino)-4-oxo-3-aza-1(1,3),2(1,2)-dibenzenacyclononaphane-9-yl)pyridine 1-oxide] | 810 pM | 260 pM
7 | COC(=O)Nc1ccc2c(c1)NC(=O)CCCC[C@H](c1ccc(-c3cc(Cl)ccc3-n3cc(Cl)nn3)c[n+]1[O-])c1cccc-2c1 (single isomer, unassigned) [Example 37] | 360 pM | 130 pM
8 | COC(=O)Nc1ccc2c(c1)NC(=O)CCCC[C@H](c1ccc(-c3cc(Cl)ccc3-n3cc(C(F)(F)F)cn3)c[n+]1[O-])c1cccc-2c1 (single isomer, unassigned) [Example 40] | 13700 pM | 460 pM
9 | COC(=O)Nc1ccc2c(c1)NC(=O)CCCC[C@H](c1ccc(-c3cc(Cl)ccc3-n3cc(C#N)cn3)c[n+]1[O-])c1cccc-2c1 (single isomer, unassigned) [Example 41] | 6270 pM | 190 pM
10 | COC(=O)Nc1ccc2c(c1)NC(=O)CCCC[C@H](c1ccc(-c3cc(Cl)ccc3-c3cnn(C(F)F)c3)c[n+]1[O-])c1cccc-2c1 (single isomer, unassigned) [Example 42] | 3100 pM | 440 pM
11 | Nc1ccc2c(c1)NC(=O)CCCCC(c1ccc(-c3c(F)ccc(Cl)c3F)c[n+]1[O-])c1cccc-2c1 (single isomer, unassigned) [Example 43-a, 2-(2^4-amino-4-oxo-3-aza-1(1,3),2(1,2)-dinenzenacyclononaphane-9-yl)-5-(3-chloro-2,6-difluorophenyl)pyridine 1-oxide] | 7000 pM | 1700 pM
12 | COC(=O)Nc1ccc2c(c1)NC(=O)C(C)CCCC(c1ccc(-c3c(F)ccc(Cl)c3F)c[n+]1[O-])c1cccc-2c1 (single isomer, unassigned) [Example 50-a, 5-(3-chloro-2,6-difluorophenyl)-2-(2^4-((methoxycarbonyl)amino)-5-methyl-4-oxo-3-aza-1(1,3),2(1,2)-dinenzenacyclononaphane-9-yl)pyridine 1-oxide] | 1890 pM | 530 pM

— patent publication US10214512B2, “Factor XIA inhibitors” (MERCK SHARP & DOHME CORP., priority 2015, dated 2019)
